Laboratory results from PMC6273912, “Novel 5-Substituted 2-(Aylmethylthio)-4-chloro-N-(5-aryl-1,2,4-triazin-3-yl)benzenesulfonamides: Synthesis, Molecular Structure, Anticancer Activity, Apoptosis-Inducing Activity and Metabolic Stability” (Molecules, 2016).

Legend:
HeLa (cervical cancer) = experiment: MTT cell viability assay, HeLa; type: cell-based, human; settings: 72 h of incubation, mean ± SD
Summary of the method: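 Cells were seeded at 5 × 10^3 cells/well and exposed for 72 h to compounds at 1, 10, 25, 50 and 100 μM, with DMSO stocks. MTT (0.5 mg/mL) was added for 2 h at 37 °C, and formazan absorbance was read at 550 nm. Values are mean ± SD of at least three independent triplicate experiments.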

HCT-116, HeLa and MCF-7 = experiment: MTT cell viability assay, all tested cell lines together; type: cell-based; settings: Homo sapiens; average over HCT-116, HeLa and MCF-7; read-out: average IC50 against all tested cell lines
Method: All chemicals, if not stated otherwise, were obtained from Sigma-Aldrich (St. Louis, MO, USA). The MCF-7 cell line was purchased from Cell Lines Services (Eppelheim, Germany), the HeLa and HCT-116 cell lines were obtained from the Department of Microbiology, Tumor and Cell Biology, Karolinska Institute (Stockholm, Sweden). Cells were cultured in Dulbecco’s modified Eagle’s medium (DMEM) supplemented with 10% fetal bovine serum, 2 mM glutamine, 100 units/mL penicillin, and 100 μg/mL streptomycin. Cultures were maintained in a humidified atmosphere with 5% CO2 at 37 °C in an incubator (HeraCell, Heraeus, Langenselbold, Germany).
Cell viability was determined using the MTT (3-(4,5-dimethylthiazol-2-yl)-2,5-diphenyl-tetrazoliumbromide) assay. Stock solutions of the studied compounds were prepared in 100% DMSO. […] Cells were seeded in 96-well plates at a density of 5 × 10^3 cells/well and treated for 72 h with the examined compounds in the concentration range 1–100 μM (1, 10, 25, 50 and 100 μM). Following treatment, MTT (0.5 mg/mL) was added to the medium and cells were further incubated for 2 h at 37 °C. Cells were lysed with DMSO and the absorbance of the formazan solution was measured at 550 nm with a plate reader (1420 multilabel counter, Victor, Jügesheim, Germany). […] The experiment was performed in triplicate. Values are expressed as the mean ± SD of at least three independent experiments.

HCT-116 [1] = experiment: Cell cycle analysis (sub-G1, DAPI flow cytometry), HCT-116; type: cell-based, human; settings: HCT-116, 24 h, dose dependent increase, mean ± SD
Method: (§1) One of the most common mechanisms in anticancer drug treatment is changes in cell cycle, which can be measured by DNA content. Cell cycle distribution in HCT-116, HeLa and MCF-7 cells was examined to determine cycle arrest and/or presence of sub-G1 after treatment with compounds 37 and 46. […] Cell populations data are expressed as the mean ± SD of at least three independent experiments.
(§2) Following treatment, cells were fixed in cold 70% ethanol for 30 min. Fixed cells were stained for 15 min in buffer containing 500 μg/mL RNAse A (EURx, Gdansk, Poland) and 2.5 μg/mL of DAPI (Sigma-Aldrich, Munich, Germany). The fluorescence of DAPI was measured at 440 ± 40 nm with a flow cytometer (LSR II, BD Biosciences, Mountain View, CA, USA). Each experiment was performed at least in triplicate. Data were analyzed off-line using the BD FACSDiva (BD Biosciences).

HeLa [2] = experiment: Cell cycle analysis (sub-G1, DAPI flow cytometry), HeLa; type: cell-based, human; settings: 24 h, dose dependent increase, mean ± SD
Method: as §1, §2

HCT-116 [3] = experiment: Mitochondrial membrane potential (JC-1), HCT-116; type: cell-based, human; settings: HCT-116, 24 h, low and moderate concentrations
Method: (§3) Loss of the mitochondrial membrane potential (Δψm) is one of the earliest indicators of an apoptosis. It can be detected using fluorescent dye JC-1 (5,5′,6,6′-tetrachloro-1,1′,3,3′-tetraethylbenzimidazolylcarbocyanine iodide) exited with blue laser. JC-1 spontaneously forms dimer complexes (J aggregates) with red fluorescent or remain as a monomers with green fluorescence in cells with high and low Δψm, respectively.
(§4) Half an hour before the end of 24 h-treatment 2.5 μg/mL of JC-1 (5,5′,6,6′-tetrachloro-1,1′,3,3′-tetraethylbenzimidazolylcarbocyanine iodide) was added to the cell medium. As a negative control 100 μM CCCP (carbonyl cyanide 3-chlorophenylhydrazone) was used 15 min before JC-1 treatment. Following treatment cells were twice washed with PBS and analyzed with flow cytometer (LSR II, BD Biosciences).
(§5) Green and red fluorescence were observed using FL-1 (530 ± 30 nm) and FL-2 (585 ± 42 nm) channels, respectively. Percentage of cell population in red or green fluorescence gate indicated the level of Δψm. Decreasing red fluorescence cell population indicated lower Δψm.

HeLa [4] = experiment: Mitochondrial membrane potential (JC-1), HeLa; type: cell-based, human; settings: 24 h, low and moderate concentrations
Method: as §3, §4, §5

HCT-116 [5] = experiment: Cell morphology (light microscope), HCT-116; type: cell-based, human; settings: HCT-116, 25–100 μM, 24 h
Method: To evaluate the changes in morphology of the treated cells, they were incubated with increasing concentrations of 37 (HCT-116, HeLa) or 46 (MCF-7) for 24 h and observed using light microscope.
The HCT-116, HeLa and MCF-7cells were seeded on 24-well plates (5 × 10^4/per well) in 300 μL of medium and incubated with 37 (HCT-116, HeLa) or 46 (MCF-7) for 24 h. Cells incubated with increasing concentrations of compounds (25–100 μM) were observed after 24 h using light microscope Axiovert 200 (Zeiss, Oberkochen, Germany).

IC50 (HeLa (cervical cancer)): 34 ± 2 µM
IC50 (HeLa (cervical cancer); Homo sapiens, 72 h): 34 to 42 µM
IC50 (HCT-116, HeLa and MCF-7): 47 µM
Structure (SMILES): Cc1cc(S(=O)(=O)Nc2nncc(-c3ccc(C(F)(F)F)cc3)n2)c(SCc2cccc3ccccc23)cc1Cl [Compound 37, 4-Chloro-5-methyl-2-[(naphthalene-1-yl)methylthio]-N-[5-(4-trifluoromethylphenyl)-1,2,4-triazin-3-yl]-benzenesulfonamide]
Sub-G1 cell population (HCT-116 [1]): 48.6% ± 13.5%
Sub-G1 cell population (HeLa [2]): 21% ± 3.4%
effect on mitochondrial membrane potential (Δψm) (HCT-116 [3]): remarkably decreased Δψm
effect on mitochondrial membrane potential (Δψm) (HeLa [4]): remarkably decreased Δψm
morphological changes (HCT-116 [5]): shrinkage of the cells, detachment from the surface
